Results reported in patent US12325696B2, “Indazole derivative, preparation method therefor, and pharmaceutical application thereof” (JIANGSU HENGRUI MEDICINE CO., LTD., priority 2019, dated 2025).
pIC50: −log10 of the molar value.

Key:
Format in all cases: cell-based
MCF7 D538G = assay: Inhibition of proliferation of MCF7 cell expressing ERα D538G mutant; details: Homo sapiens, 144 hours; for Emax: read-out: Maximum inhibition
Source text: (§1) The mutants ERα Y537S and ERα D538G of human estrogen receptor α (ERαs) protein were obtained by site-directed mutagenesis using the cDNA of wild-type ESR1 gene (Accession No. NM000125) as a template according to double-primer PCR. The primer sequences used for mutagenesis are as follows (the nucleotides underlined are the sites of mutagenesis):
(§2) The cDNA of mutant ESR1 was cloned into the target lentiviral vector pCDH-CMV-MCS-EF1-Puro (SBI, CD510B-1). The lentiviral plasmid with the mutant ESR1 gene sequence and the lentiviral packaging plasmids pVSV-G and pCMV-dR8.91 (SBI, LV500A-1) were transfected into HEK-293T cells (ATCC, CRL-3216) by Lipofectamine 3000 Transfection Reagent (ThermoFisher Scientific, Cat #L3000075). 48 hours after the transfection, the supernatant of the virus-containing DMEM high-glycemic medium (GE Healthcare, SH30243.01) containing 10% FBS was filtered, and ultracentrifuged to obtain the virus pellet. The virus pellet was resuspended in an appropriate amount of MEM medium (GE Healthcare, SH30024.01) containing 10% FBS, non-essential amino acids (SIGMA, M7145-100ML) and sodium pyruvate (SIGMA, S8636-100ML), and the resulting suspension was added to MCF7 cells (ATCC, HTB-22). Polybrene (SIGMA, H9268-5G) at a final concentration of 8 µg/ml was added, and the cells were incubated overnight. Two days after the transfection, […] puromycin (invitrogen, A11138-03) was added to the cell culture medium for resistance screening. After about two weeks, the MCF7 cell line capable of stably expressing ERαY537S and ERα D538G mutants was obtained.
(§3) MCF7 cells expressing ERα mutant were cultured in MEM (GE Healthcare, SH30024.01) complete medium containing 10% fetal bovine serum. On the first day of the experiment, the cells were seeded in a 96-well plate with the complete medium at a density of 3,000 cells/well (100 μl of cell suspension per well), and the plate was incubated in a cell incubator at 37° C. and 5% CO2 overnight. On the second day, the medium in each well was replaced with 135 μl of MEM incomplete medium containing 2% fetal bovine serum. 15 μl of test compound solution of different concentrations formulated with the incomplete medium was added to each well, wherein the final concentrations of the compound were nine concentration points obtained by a 4-fold gradient dilution starting from 100 nM. A blank control containing 0.500 DMSO was set. The plate was incubated in a cell incubator at 37° C. and 500 CO2 for 144 hours. On the eighth day, the 96-well plate was taken out, and 150 of CellTiter-Glo® Luminescent Cell Viability Assay (Promega, G7573) was added to each well. The plate was left to stand at room temperature for 10 minutes, and the luminescence signal values were measured using a multi-label microplate reader (PerkinElmer, VICTOR 3). The IC50 values of the inhibitory activity of the compounds were calculated based on the concentrations and luminescence signal values of the compounds using Graphpad Prism software.

MCF7 cell = assay: Inhibition of proliferation of MCF7 cell (CellTiter-Glo, 144 hours); details: Homo sapiens; for pIC50: MCF7, CellTiter-Glo, read-out: IC50 of the inhibitory effect on the proliferation of MCF7 cell; for Emax: MCF7 cell proliferation, read-out: Maximum inhibition
Description: as §3, with “cells (ATCC, HTB-22)” for “cells expressing ERα mutant”, “experiment, MCF7” for “experiment, the”, “containing 0.5%” for “containing 0.500”, “and 5%” for “and 500”, “150 μl” for “150”
A graph of the chemiluminescence signal values versus the logarithmic concentrations of the compound was made using Graghpad Prism to obtain the IC50 values of the compound.

MCF7 ERαY537S = assay: Inhibition of proliferation of MCF7 cell expressing ERα Y537S mutant; details: Homo sapiens, 144 hours; for Emax: read-out: Maximum inhibition
Source text: as §1, §2, §3

[1] = test system: estrogen receptor reporter gene; assay: Inhibition of estrogen receptor reporter gene activity (ERE-luc luciferase) in MCF7/ERE-luc cells; details: Homo sapiens, 0.1 nM β-estradiol, 20 hours, read-out: IC50 of inhibitory activity on the activity of the estrogen receptor reporter gene
Description: MCF7 cells MCF7/ERE-luc (ATCC, HTB-22) expressing the luciferase reporter gene ERE-luc (synthesized by GENEWIZ, Inc.) controlled by the estrogen receptor response element were cultured in MEM (GE Healthcare, SH30024.01) medium containing 10% fetal bovine serum and 500 µg/ml G418. On the first day of the experiment, MCF7/ERE-luc cells were seeded in a 96-well plate with incomplete MEM medium containing 10% fetal bovine serum treated with activated charcoal (BioSun, BS-0004-500) at a density of 30,000 cells/well (100 μl of cell suspension per well), and the plate was incubated in a cell incubator at 37° C. and 5% CO2 overnight. On the second day, 10 μl of β-estradiol (SIGMA, E2758-250MG) solution formulated with the above incomplete medium or test compound solution of different concentrations formulated with the above incomplete medium was added to each well, wherein the final concentration of β-estradiol was 0.1 nM, and the final concentrations of the compound were nine concentration points obtained by a 10-fold gradient dilution starting from 10 μM, a blank control containing 0.5% DMSO was set, and the plate was incubated in a cell incubator at 37° C. and 5% CO2 for 20 hours. On the third day, the 96-well plate was taken out, and 100 μl of ONE-Glo™ Luciferase Assay system (Promega, E6110) was added to each well to determine the activity of luciferase. The plate was left to stand at room temperature for 3 minutes until the cells were fully lysed, and the luminescence signal values were measured using a multi-label microplate reader (PerkinElmer, VICTOR 3). The IC50 values of the inhibitory activity of the compounds were calculated using Graphpad Prism software based on the concentrations and luminescence signal values of the compounds.
The inhibitory effect of the compounds of the present disclosure on the activity of the estrogen receptor reporter gene was determined by the above test. A graph of the chemiluminescence signal values versus the logarithmic concentrations of the compound was made using Graghpad Prism.

Row | SMILES | pIC50 (MCF7 D538G) | pIC50 (MCF7 cell) | pIC50 (MCF7 ERαY537S) | pIC50 [1] | Emax (MCF7 D538G) [%] | Emax (MCF7 cell) [%] | Emax (MCF7 ERαY537S) [%]
1 | O=C(/C=C/CNC1(COc2ccc(/C(=C(/CC(F)(F)F)c3ccccc3)c3ccc4[nH]nc(F)c4c3)cn2)CC1)N1CCCCC1 [Example 3, (E)-1-(Piperidin-1-yl)-4-((1-(((5-((Z)-4,4,4-trifluoro-1-(3-fluoro-1H-indazol-5-yl)-2-phenylbut-1-en-1-yl)pyridin-2-yl)oxy)methyl)cyclopropyl)amino)but-2-en-1-one] | 8.05 | 8.70 | 8.05 | 8.40 | 96 | 101 | 93
2 | O=C(/C=C/CNC1(COc2ccc(/C(=C(/CC(F)(F)F)c3ccccc3)c3ccc4[nH]nc(F)c4c3)cn2)CC1)N1CCNCC1 [Example 4, (E)-1-(Piperazin-1-yl)-4-((1-(((5-((Z)-4,4,4-trifluoro-1-(3-fluoro-1H-indazol-5-yl)-2-phenylbut-1-en-1-yl)pyridin-2-yl)oxy)methyl)cyclopropyl)amino)but-2-en-1-one] | 8.00 | 8.82 | 7.96 | 8.40 | 105 | 113 | 101
3 | CN(C)C(=O)/C=C/CN(C)C1(COc2ccc(/C(=C(/CC(F)(F)F)c3ccccc3)c3ccc4[nH]nc(F)c4c3)cn2)CC1 [Example 5, (E)-N,N-Dimethyl-4-(methyl(1-(((5-((Z)-4,4,4-trifluoro-1-(3-fluoro-1H-indazol-5-yl)-2-phenylbut-1-en-1-yl)pyridin-2-yl)oxy)methyl)cyclopropyl)amino)but-2-enamide] | 9.70 | 10.00 | 9.52 | 8.52 | 98 | 96 | 107
4 | CCN(C/C=C/C(=O)N(C)C)C1(COc2ccc(/C(=C(/CC(F)(F)F)c3ccccc3)c3ccc4[nH]nc(F)c4c3)cn2)CC1 [Example 6, (E)-4-(Ethyl(1-(((5-((Z)-4,4,4-trifluoro-1-(3-fluoro-1H-indazol-5-yl)-2-phenylbut-1-en-1-yl)pyridin-2-yl)oxy)methyl)cyclopropyl)amino)-N,N-dimethylbut-2-enamide] | 9.30 | 9.82 | 9.00 | 9.30 | 98 | 94 | 102
5 | CN(C)C(=O)/C=C/CNC1(COc2ccc(/C(=C(/CC(F)(F)F)c3ccccc3)c3ccc4[nH]nc(F)c4c3)cn2)CCCC1 [Example 7, (E)-N,N-Dimethyl-4-((1-(((5-((Z)-4,4,4-trifluoro-1-(3-fluoro-1H-indazol-5-yl)-2-phenylbut-1-en-1-yl)pyridin-2-yl)oxy)methyl)cyclopentyl)amino)but-2-enamide] | 7.92 | 8.70 | 7.92 | 7.42 | 84 | 102 | 88
6 | CN(C)C(=O)/C=C/CN1CCC(Oc2ccc(/C(=C(/CC(F)(F)F)c3ccccc3)c3ccc4[nH]nc(F)c4c3)cn2)CC1 [Example 9, (E)-N,N-Dimethyl-4-(4-((5-((Z)-4,4,4-trifluoro-1-(3-fluoro-1H-indazol-5-yl)-2-phenylbut-1-en-1-yl)pyridin-2-yl)oxy)piperidin-1-yl)but-2-enamide] | 9.10 | 10.00 | 8.70 | 8.70 | 108 | 110 | 94
7 | CNC(=O)c1ccc(/C(CC(F)(F)F)=C(\c2ccc(O[C@@H]3CCCN(C/C=C/C(=O)N(C)C)C3)nc2)c2ccc3[nH]nc(F)c3c2)cc1 [Example 21, 4-((Z)-1-(6-(((R)-1-((E)-4-(Dimethylamino)-4-oxobut-2-en-1-yl)piperidin-3-yl)oxy)pyridin-3-yl)-4,4,4-trifluoro-1-(3-fluoro-1H-indazol-5-yl)but-1-en-2-yl)-N-methylbenzamide] |  | 7.35 |  |  |  | 90 | 

Further lines, with some results ahead:

Row | pIC50 (MCF7 D538G) | pIC50 (MCF7 cell) | pIC50 (MCF7 ERαY537S) | pIC50 [1] | SMILES | Emax (MCF7 D538G) [%] | Emax (MCF7 cell) [%] | Emax (MCF7 ERαY537S) [%]
8 |  | 9.52 |  | 8.15 | CN(C)C(=O)/C=C/CN1CCC[C@H](Oc2ccc(/C(=C(/CC(F)(F)F)c3ccccc3)c3ccc4[nH]nc(F)c4c3)cn2)C1 [Example 27, (E)-N,N-Dimethyl-4-((S)-3-((5-((Z)-4,4,4-trifluoro-1-(3-fluoro-1H-indazol-5-yl)-2-phenylbut-1-en-1-yl)pyridin-2-yl)oxy)piperidin-1-yl)but-2-enamide] |  | 86 | 
9 |  | 10.00 |  | 8.40 | C=CC(=O)N1CCC(Oc2ccc(/C(=C(/CC(F)(F)F)c3ccccc3)c3ccc4[nH]nc(F)c4c3)cn2)CC1 [Example 28, (Z)-1-(4-((5-(4,4,4-Trifluoro-1-(3-fluoro-1H-indazol-5-yl)-2-phenylbut-1-en-1-yl)pyridin-2-yl)oxy)piperidin-1-yl)prop-2-en-1-one] |  | 90 | 
10 |  | 9.70 |  | 8.52 | CN(C)C(=O)/C=C/CN1CC[C@H](Oc2ccc(/C(=C(/CC(F)(F)F)c3ccccc3)c3ccc4[nH]nc(F)c4c3)cn2)C1 [Example 30, (E)-N,N-Dimethyl-4-((S)-3-((5-((Z)-4,4,4-trifluoro-1-(3-fluoro-1H-indazol-5-yl)-2-phenylbut-1-en-1-yl)pyridin-2-yl)oxy)pyrrolidin-1-yl)but-2-enamide] |  | 93 | 
